According to ChEMBL document CHEMBL5385857, “Optimization and SAR research at the benzoxazole and tetrazole rings of JNJ4796 as new anti-influenza A virus agents, part 2” (Eur J Med Chem, 2023):

How the values were obtained:
Influenza A virus = assay: Antiviral activity against oseltamivir-resistant influenza A virus H1N1 clinical isolate IAV/Tianjin Jinnan/15/2009 infected in MDCK cells; type: functional, organism-based; conditions: H1N1(IAV/Tianjin Jinnan/15/2009)
[1] = Selectivity index, ratio of CC50 for MDCK cells to IC50 for oseltamivir-resistant influenza A virus H1N1 clinical isolate IAV/Tianjin Jinnan/15/2009 infected in MDCK cells; type: toxicity, cell-based; conditions: dog, read-out: Ratio CC50/IC50

SMILES	IC50 (Influenza A virus)	selectivity ratio [1]
CC(=O)Nc1ccc2oc(-c3ccnc(C(=O)N4CCN([C@H](c5ccc(F)cc5)c5nnn(C6CCCC6)n5)CC4)c3)nc2c1	0.44 µM	198
CCC(CC)n1nnc([C@H](c2ccc(F)cc2)N2CCN(C(=O)c3cc(-c4nc5cc(NC(C)=O)ccc5o4)ccn3)CC2)n1	0.96 µM	> 104
CC(=O)Nc1ccc2oc(-c3ccnc(C(=O)N4CCN([C@H](c5ccccc5)c5nnn(C(C)C)n5)CC4)c3)nc2c1	0.07 µM	> 1430
CCC(CC)n1nnc([C@@H](c2ccc(F)cc2)N2CCN(C(=O)c3cc(-c4nc5cc(NC(C)=O)ccc5o4)ccn3)CC2)n1	0.22 µM	> 454
CCCCn1nnc([C@H](c2ccc(F)cc2)N2CCN(C(=O)c3cc(-c4nc5cc(NC(C)=O)ccc5o4)ccn3)CC2)n1	4.85 µM	> 20
CC(=O)Nc1ccc2oc(-c3ccnc(C(=O)N4CCN([C@H](c5ccc(F)cc5)c5nnn(C(C)C)n5)CC4)c3)nc2c1	0.07 µM	> 1430
CC(=O)Nc1ccc2oc(-c3ccnc(C(=O)N4CCN([C@@H](c5ccccc5)c5nnn(C(C)C)n5)CC4)c3)nc2c1	1.51 µM	> 66
CC(=O)Nc1ccc2oc(-c3ccnc(C(=O)N4CCN([C@@H](c5ccc(F)cc5)c5nnn(CCC(C)C)n5)CC4)c3)nc2c1	11.7 µM	> 8
C=Cn1nnc([C@H](c2ccc(F)cc2)N2CCN(C(=O)c3cc(-c4nc5cc(NC(C)=O)ccc5o4)ccn3)CC2)n1	6.86 µM	> 14.5
CC(=O)Nc1ccc2oc(-c3ccnc(C(=O)N4CCN([C@@H](c5ccc(F)cc5)c5nnn(C(C)C)n5)CC4)c3)nc2c1	2.29 µM	> 43
CC(=O)Nc1ccc2oc(-c3ccnc(C(=O)N4CCN([C@H](c5ccc(F)cc5)c5nnn(CCC(C)C)n5)CC4)c3)nc2c1	0.73 µM	> 136
CCCCn1nnc([C@@H](c2ccc(F)cc2)N2CCN(C(=O)c3cc(-c4nc5cc(NC(C)=O)ccc5o4)ccn3)CC2)n1	0.22 µM	> 454
C=Cn1nnc([C@@H](c2ccc(F)cc2)N2CCN(C(=O)c3cc(-c4nc5cc(NC(C)=O)ccc5o4)ccn3)CC2)n1	0.09 µM	> 196
CC(=O)Nc1ccc2oc(-c3ccnc(C(=O)N4CCN([C@@H](c5ccc(F)cc5)c5nnn(C6CCCC6)n5)CC4)c3)nc2c1	2.46 µM	39
